Test results taken from patent publication US20260250318A1, “COMPOSITIONS AND METHODS FOR CROSSING THE BLOOD BRAIN BARRIER” (VOYAGER THERAPEUTICS, INC., priority 2022, published 2026).

What was measured:
Conditions in all cases: synthetic library passage 3, intravenous, relative to wild-type AAV9
[1] = test system: brain, spinal cord, and DRG of the NHPs; assay: NGS fold enrichment of synthetic library (passage 3) in NHPs, first cross-species screen; type: in vivo, cynomolgus macaques (Macaca fascicularis)
Summary of the method: (§1)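 Passage-3 synthetic capsid library given intravenously […] to NHPs (2-4 years) and BALB/c or C57Bl/6 mice (n=3, 6-8 weeks). After e.g. 28 days, tissue RNA was RT-PCR amplified and NGS-sequenced; values are fold enrichment of each variant relative to wild-type AAV9.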

brain [2] = assay: NGS fold enrichment of synthetic library (passage 3) in BALB/c mice, first cross-species screen; type: in vivo
Summary of the method: as §1

brain [3] = assay: NGS fold enrichment of synthetic library (passage 3) in C57Bl/6 mice, first cross-species screen; type: in vivo
Summary of the method: as §1

[4] = RNA from spinal cord of NHPs, NGS
[5] = RNA from brain of BALB/c mice, NGS
[6] = RNA from brain of C57Bl/6 mice, NGS

Sequence | Fold enrichment over AAV9 in the brain of NHPs ([1]; RNA from brain of NHPs, NGS) [fold] | Fold enrichment over AAV9 in the spinal cord of NHPs [1, 4] [fold] | Fold enrichment over AAV9 in the brain of Mice (BALB/c) (brain [2]; [5]) [fold] | Fold enrichment over AAV9 in the brain of Mice (C57Bl/6) (brain [3]; [6]) [fold] | Fold enrichment over AAV9 in the brain of NHPs ([1]; RNA NGS, brain of NHPs) [fold] | Fold enrichment over AAV9 in the spinal cord of NHPs ([1]; RNA NGS, spinal cord of NHPs) [fold] | Fold enrichment over AAV9 in the brain of Mice (BALB/c) (brain [2]; RNA NGS, brain of BALB/c mice) [fold] | Fold enrichment over AAV9 in the brain of Mice (C57Bl/6) (brain [3]; RNA NGS, brain of C57Bl/6 mice) [fold]
GTTAHQPSGQNQQT | 1.138 | 0.211 | 0.275 | 0.726 | – | – | – | –
GVAFIGSSGQNQQT | – | – | – | – | 1.043 | 0.000 | 0.648 | 0.744
GVAGSLVSGQNQQT | – | – | – | – | 2.358 | 7.670 | 1.160 | 1.321
GVGVITSSGQNQQT | 1.348 | 0.918 | 0.777 | 1.296 | – | – | – | –
GVHDMRVSGQNQQT | – | – | – | – | 1.032 | 8.083 | 0.818 | 1.171
GVHSLTPSGQNQQT | – | – | – | – | 1.687 | 4.104 | 0.215 | 0.475
GVHTHLPSGQNQQT | – | – | – | – | 1.952 | 1.364 | 0.796 | 1.414
GVIVLHGSGQNQQT | – | – | – | – | 1.682 | 14.166 | 1.098 | 1.074
GVKGVGHSGQNQQT | – | – | – | – | 1.096 | 2.485 | 0.783 | 0.994
GVSRGGPSGQNQQT | – | – | – | – | 1.028 | 1.611 | 0.591 | 0.750
GVVAAHNSGQNQQT | – | – | – | – | 2.202 | 1.301 | 1.336 | 1.196
GVVAHQPSGQNQQT | – | – | – | – | 2.103 | 0.152 | 2.267 | 0.910
GVVHITNSGQNQQT | – | – | – | – | 1.969 | 0.504 | 0.846 | 0.794
GVVRNHQSGQNQQT | – | – | – | – | 1.116 | 5.801 | 0.868 | 0.899
GWERSFVSGQNQQT | – | – | – | – | 1.492 | 0.943 | 0.538 | 0.490
GYEVLGSSGQNQQT | – | – | – | – | 2.891 | 0.000 | 0.319 | 2.459
